Read-outs that look alike come from different tables or passages of the source.
How the values were obtained:
mock-infected MT4 cells = assay: General toxicity assay on mock-infected MT4 cells with CMV-EGFP reporter (CC50); assay type: cell-based
HIV-1 IIIB = assay: 50% HS-Rezazurin: antiviral assay in the presence of 50% human serum, MT-4 cells, resazurin cell viability; assay type: cell-based
Procedure: For the Antiviral assay in the presence of 50% human serum MT-4 cells were infected with HIV-1 IIIB at a MOI of 0.001 to 0.01 CCID50/cell in RPMI1640 medium. Following 1 h of incubation, cells were washed and plated into a 96-well plate containing serial dilutions of compound in the presence of 10% fetal calf serum (FCS), or 50% human serum. After 4 days incubation, the EC50 in the presence of 50% human serum was determined by a cell viability assay using resazurin.
The last column lists the results for the wild-type strain IIB in the presence of 50% human serum MT-4 cells.

HIV-1 wild-type strain = assay: General antiviral assay, cell-based virus replication in MT4-LTR-EGFP cells, wild-type strain
Procedure: (§1) MT4-LTR-EGFP cells were obtained by transfecting MT4 cells with a selectable construct encompassing the sequences coding for the HIV long terminal repeat (LTR) as a promoter for the expression of enhanced green fluorescent protein (EGFP) and subsequent selection of permanently transfected cells.
(§2) The antiviral activity on different HIV-1 strains, was determined in a cell-based virus replication assay. Here MT4-LTR-EGFP cells (150,000 cells/ml) are infected (multiplicity of infection [MOI] of 0.0025) in the presence or absence of different inhibitor concentrations. Two methodologies for read-out were used, either quantification of GFP-fluoresence on day 3 post-infection, or quantification of cell-viability using rezazurin (as described by Fields, R. D., and M. V. Lancaster (1993) Am. Biotechnol. Lab. 11:48-50) on day 4 post infection.

[1] = tested on: HIV-1 Strain A (M046I, I084V); assay: microbe, parasite or virus in culture; assay type: cell-based; settings: clinical isolate Strain A; read-out: A EC50
Procedure: as §1, §2
(§3) In the following Table, Strains A, B, and C are clinical isolates that include the following protease inhibitor resistance mutations in the protease domain (background mutations are not mentioned).

[2] = tested on: HIV-1 Strain B (M046I, I050V); assay: microbe, parasite or virus in culture; assay type: cell-based; settings: clinical isolate Strain B; read-out: B EC50
Procedure: as §1, §2, §3

[3] = tested on: HIV-1 Strain C (G048G/V, V082A); assay: microbe, parasite or virus in culture; assay type: cell-based; settings: clinical isolate Strain C; read-out: C EC50
Procedure: as §1, §2, §3

[4] = MT4LTR cells, read-out: TOX-MT4LTR (CC50)
[5] = wild-type strain IIIB, MT4-LTR-EGFP cells
[6] = mock-infected MT4 cells with CMV-EGFP reporter, read-out: TOX-MT4CMV (CC50)

Row | Structure (SMILES) | CC50 (mock-infected MT4 cells; [4]) | EC50 (HIV-1 IIIB) | EC50 (HIV-1 wild-type strain; [5]) | EC50 [1] | EC50 [2] | EC50 [3] | CC50 (mock-infected MT4 cells; [6]) | EC50 (HIV-1 wild-type strain; read-out: HIV-IIIB EC50) | CC50 (mock-infected MT4 cells; read-out: TOX-MT4CMV (CC50))
1 | COc1ccc(-c2ccc(C[C@H](NC(=O)O[C@H]3CO[C@H]4OCC[C@H]43)[C@@H](O)C[C@@H](Cc3ccccc3F)C(=O)N[C@H]3c4cccc(Cl)c4OC[C@H]3O)cc2)cn1 [Compound 75] | > 32000 nM | 9.3 nM | 2.4 nM | 1.4 nM | 0.9 nM | 0.8 nM | – | – | –
2 | COC(=O)N[C@H](C(=O)N[C@@H](Cc1ccc(-c2ccc(OC)nc2)cc1)[C@@H](O)C[C@@H](Cc1cccc(OC(F)(F)F)c1)C(=O)N[C@H]1[C@H](C)CCC[C@H]1O)C(C)(C)C [Compound 94] | > 32000 nM | 7.1 nM | 0.9 nM | 1.9 nM | 0.8 nM | 1.4 nM | – | – | –
3 | COC(=O)N[C@H](C(=O)N[C@@H](Cc1ccccc1)[C@@H](O)CN(Cc1ccc(-c2ccccn2)cc1)NC(=O)[C@@H](NC(=O)OC)C(C)(C)C)C(C)(C)C [ATV] | > 32000 nM | 16 nM | 7.6 nM | 59 nM | 3.3 nM | 62 nM | 26000 nM | – | –
4 | COC(=O)N[C@H](C(=O)N[C@@H](Cc1ccc(-c2ccc(OC)nc2)cc1)[C@@H](O)C[C@@H](Cc1ccccc1F)C(=O)N[C@H]1c2cc(F)cc(Cl)c2OC[C@H]1O)C(C)(C)C [Compound 56] | > 32000 nM | 8.4 nM | 2.6 nM | 1.4 nM | 1.2 nM | 0.7 nM | – | – | –
5 | COC(=O)N[C@H](C(=O)N[C@@H](Cc1ccc(-c2ccc(OC)nc2)cc1)[C@@H](O)C[C@@H](Cc1cccc(F)c1)C(=O)N[C@H]1c2ccc(F)cc2OC[C@H]1O)C(C)(C)C [Compound 85] | > 32000 nM | 17.5 nM | 2.9 nM | 3 nM | 1.3 nM | 1.1 nM | > 32000 nM | – | –
6 | COCCNC(=O)[C@@H](NC(=O)[C@H](Cc1cccc(F)c1)C[C@H](O)[C@H](Cc1ccc(-c2ccc(OC)nc2)cc1)NC(=O)[C@@H](NC(=O)OC)C(C)(C)C)C(C)(C)C [Compound 92] | > 32000 nM | 8.4 nM | 2.6 nM | 4.2 nM | 1.8 nM | 2.9 nM | > 32000 nM | – | –
7 | COC(=O)N[C@H](C(=O)N[C@@H](Cc1ccc(-c2ccc(N(C)C)nc2)cc1)[C@@H](O)C[C@@H](Cc1ccccc1F)C(=O)N[C@H]1c2cc(F)ccc2OC[C@H]1O)C(C)(C)C [Compound 33] | – | 9.8 nM | 2.5 nM | 1.5 nM | 1 nM | 0.9 nM | > 32000 nM | – | –
8 | COCCOC(=O)N[C@H](C(=O)N[C@@H](Cc1ccc(-c2ccc(N(C)C)nc2)cc1)[C@@H](O)C[C@@H](Cc1ccccc1F)C(=O)N[C@H]1c2cc(F)ccc2OC[C@H]1O)C(C)(C)C [Compound 34] | > 32000 nM | 10 nM | 2.7 nM | 2 nM | 1.5 nM | 1.3 nM | > 32000 nM | – | –
9 | COc1ccc(-c2ccc(C[C@H](NC(=O)O[C@H]3CO[C@H]4OCC[C@H]43)[C@@H](O)C[C@@H](Cc3ccccc3Cl)C(=O)N[C@H]3c4cc(F)ccc4OC[C@H]3O)cc2)cn1 [Compound 77] | > 32000 nM | 6.5 nM | 1.9 nM | 1.6 nM | 1 nM | 0.7 nM | – | – | –
10 | COC(=O)NC(C(=O)NC(Cc1ccc(-c2ccc(N(C)C)nc2)cc1)C(O)CC(Cc1ccccc1F)C(=O)NC1c2cc(Cl)ccc2OCC1O)C(C)(C)C (centres unmarked) [Compound 8] | > 49000 nM | 12.4 nM | 1.8 nM | 2 nM | 1.2 nM | 1 nM | > 32000 nM | – | –
11 | COC(=O)N[C@H](C(=O)N[C@@H](Cc1ccc(-c2ccc(OC)nc2)cc1)[C@@H](O)C[C@@H](Cc1ccccc1F)C(=O)N[C@H]1c2cc(C)ccc2OC[C@H]1O)C(C)(C)C [Compound 66] | > 32000 nM | 7.7 nM | 0.9 nM | 0.8 nM | 0.8 nM | 0.5 nM | – | – | –
12 | COC(=O)NC(C(=O)NC(Cc1ccc(-c2cc(C)nc(C3CC3)c2)cc1)C(O)CC(Cc1ccccc1F)C(=O)NC1c2cc(Cl)ccc2OCC1O)C(C)(C)C (centres unmarked) [Compound 21] | – | 34.9 nM | 6.1 nM | 3.8 nM | 3.2 nM | 3.6 nM | > 32000 nM | – | –
13 | COC(=O)N[C@H](C(=O)N[C@@H](Cc1ccc(-c2ccc(OC)nc2)cc1)[C@@H](O)C[C@@H](Cc1ccccc1Cl)C(=O)N[C@H]1c2cc(F)ccc2OC[C@H]1O)C(C)(C)C [Compound 67] | > 32000 nM | 5.3 nM | 2.9 nM | 2.1 nM | 1.2 nM | 1 nM | > 32000 nM | – | –
14 | COC(=O)N[C@H](C(=O)N[C@@H](Cc1ccc(-c2cc(C)nc(C)c2)cc1)[C@@H](O)C[C@@H](Cc1ccccc1F)C(=O)N[C@H]1c2cccc(Cl)c2OC[C@H]1O)C(C)(C)C [Compound 54] | > 32000 nM | 19.8 nM | 4.8 nM | 2.7 nM | 2.1 nM | 1.6 nM | – | – | –
15 | COC(=O)NC(C(=O)NC(Cc1ccc(-c2ccnc(C)c2)cc1)C(O)CC(Cc1cccc(Cl)c1)C(=O)NC1c2ccccc2OCC1O)C(C)(C)C (centres unmarked) [Compound 1] | – | 39.3 nM | – | 5.7 nM | 4.8 nM | 3.7 nM | > 32000 nM | 7.7 nM | –
16 | COc1ccc(-c2ccc(C[C@H](NC(=O)O[C@H]3CO[C@H]4OCC[C@H]43)[C@@H](O)C[C@@H](Cc3cccc(OC(F)(F)F)c3)C(=O)N[C@H]3c4cc(Cl)ccc4OC[C@H]3O)cc2)cn1 [Compound 73] | > 32000 nM | 9.2 nM | 3.3 nM | 3.7 nM | 4.1 nM | 1.9 nM | – | – | –
17 | COC(=O)N[C@H](C(=O)N[C@@H](Cc1ccc(-c2ccc(OC)nc2)cc1)[C@@H](O)C[C@@H](Cc1cccc(OC(F)(F)F)c1)C(=O)N[C@H]1c2ccccc2OC[C@H]1O)C(C)(C)C [Compound 41] | > 32000 nM | 10.5 nM | 3 nM | 2.4 nM | 1.2 nM | 1.1 nM | > 32000 nM | – | –
18 | COC(=O)N[C@H](C(=O)N[C@@H](Cc1ccc(-c2ccc(OC)nc2)cc1)[C@@H](O)C[C@@H](Cc1ccccc1Cl)C(=O)N[C@H]1c2cc(Cl)ccc2OC[C@H]1O)C(C)(C)C [Compound 58] | > 32000 nM | 13.3 nM | 3.9 nM | 6 nM | 2.5 nM | 1.8 nM | – | – | –
19 | COc1cccc(C[C@H](C[C@H](O)[C@H](Cc2ccc(-c3ccc(OC)nc3)cc2)NC(=O)O[C@H]2CO[C@H]3OCC[C@H]32)C(=O)N[C@H]2c3cc(Cl)ccc3OC[C@H]2O)c1 [Compound 70] | > 32000 nM | 11.4 nM | 2.6 nM | 1.6 nM | 1.6 nM | 1.2 nM | > 32000 nM | – | –
20 | COC(=O)N[C@H](C(=O)N[C@@H](Cc1ccc(-c2ccc(OC)nc2)cc1)[C@@H](O)C[C@@H](Cc1cccc(F)c1)C(=O)N[C@H]1c2cccc(F)c2OC[C@H]1O)C(C)(C)C [Compound 40] | > 32000 nM | 11.2 nM | 2.4 nM | 1.6 nM | 1 nM | 0.8 nM | > 32000 nM | – | –
21 | CN(C)c1ccc(-c2ccc(C[C@H](NC(=O)[C@@H](NC(=O)C3(C#N)CC3)C(C)(C)C)[C@@H](O)C[C@@H](Cc3ccccc3F)C(=O)N[C@H]3c4cc(F)ccc4OC[C@H]3O)cc2)cn1 [Compound 35] | > 32000 nM | 8.4 nM | 2.1 nM | 4 nM | 2.2 nM | 2 nM | – | – | > 32000 nM
22 | COC(=O)N[C@H](C(=O)N[C@@H](Cc1ccc(-c2ccc(OC)nc2)cc1)[C@@H](O)C[C@@H](Cc1ccccc1Cl)C(=O)N[C@H]1c2ccccc2OC[C@H]1O)C(C)(C)C [Compound 37] | > 32000 nM | 4.6 nM | 1.7 nM | 2.5 nM | 0.9 nM | 0.8 nM | > 32000 nM | – | –
23 | COC(=O)NC(C(=O)NC(Cc1ccc(-c2ccc(N(C)C)nc2)cc1)C(O)CC(Cc1cccc(Cl)c1)C(=O)NC1c2cc(F)ccc2OCC1O)C(C)(C)C (centres unmarked) [Compound 13] | – | 22.6 nM | 4.7 nM | 4.6 nM | 3 nM | 2.4 nM | > 32000 nM | – | –

— patent publication US20120295920A1, “5-AMINO-4-HYDROXYPENTOYL AMIDES” (priority 2009, published 2012)
